Results taken from patent US20260355196A1, “INHIBITORS AND DEGRADERS OF PIP4K PROTEIN” (Larkspur Biosciences, Inc., priority 2023, published 2026).

biological target: T1, PIP4K2C (Homo sapiens, UniProt Q8TBX8); experiment: HiBiT PIP4K2C degradation assay in MOLT-4 cells (endogenous PIP4K2C C-terminally tagged with HiBiT); format: cell-based; design: untagged in primary human PBMCs and monocyte-derived dendritic cells; conditions: 24 hours incubation, MOLT-4, top concentration 10 micromolar; read-out: HiBIT-degradation MOLT4 PIP4k2C 24 hours DC50
T1 sequence (Q8TBX8 1-421): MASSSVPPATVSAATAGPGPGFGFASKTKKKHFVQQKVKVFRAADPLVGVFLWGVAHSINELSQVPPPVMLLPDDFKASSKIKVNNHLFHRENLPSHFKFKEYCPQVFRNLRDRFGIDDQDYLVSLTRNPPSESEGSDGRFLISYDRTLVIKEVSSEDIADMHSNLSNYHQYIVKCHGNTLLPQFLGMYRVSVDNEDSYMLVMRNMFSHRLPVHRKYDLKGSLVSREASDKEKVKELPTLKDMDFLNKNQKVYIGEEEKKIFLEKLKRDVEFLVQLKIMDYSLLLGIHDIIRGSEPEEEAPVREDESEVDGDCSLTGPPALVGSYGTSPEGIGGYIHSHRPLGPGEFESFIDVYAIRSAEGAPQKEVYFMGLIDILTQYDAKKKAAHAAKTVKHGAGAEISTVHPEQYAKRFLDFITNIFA
Procedure, shortened: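 Cells are plated onto compound dilutions (10 points, 3-fold, top 10 micromolar) and incubated 24 or 6 hours at 37 C. Lytic HiBiT detection then quantifies tagged endogenous PIP4K2C in MOLT-4, and a Hill fit yields DC50.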

DC50 | Structure (SMILES)
< 500 nM | O=C1CCC(N2Cc3cc(OC4CCN(C(=O)C5CCN(C(=O)C6CCC[C@@H](Nc7ncc(Cl)c(-c8cccc(-c9ccccc9)c8)n7)C6)CC5)CC4)ccc3C2=O)C(=O)N1 (stereo in doubt) [Compound 77, cis-3-(5-((1-(1-(3-((4-([1,1′-biphenyl]-3-yl)-5-chloropyrimidin-2-yl)amino)cyclohexane-1-carbonyl)piperidine-4-carbonyl)piperidin-4-yl)oxy)-1-oxoisoindolin-2-yl)piperidine-2,6-dione]
< 500 nM | O=C1CCC(Nc2ccc(C3CCN(C[C@H]4CC[C@H](NC(=O)[C@H]5CCC[C@@H](Nc6ncc(F)c(-c7cccc(-n8ccccc8=O)c7)n6)C5)CC4)CC3)c(F)c2)C(=O)N1 (stereo in doubt) [Compound 324, trans-N-(cis-4-((4-(4-((2,6-dioxopiperidin-3-yl)amino)-2-fluorophenyl)piperidin-1-yl)methyl)cyclohexyl)-3-((5-fluoro-4-(3-(2-oxopyridin-1(2H)-yl)phenyl)pyrimidin-2-yl)amino)cyclohexane-1-carboxamide]
< 500 nM | Cn1c(=O)n(C2CCC(=O)NC2=O)c2ccc(C3CCN(CCN4CCC(C(=O)N5CCC[C@H](Nc6ncc(Cl)c(-c7cccc(-c8ccccc8)c7)n6)C5)CC4)CC3)cc21 (stereo partly drawn) [Compound 44, 3-(5-(1-(2-(4-((S)-3-((4-([1,1′-biphenyl]-3-yl)-5-chloropyrimidin-2-yl)amino)piperidine-1-carbonyl)piperidin-1-yl)ethyl)piperidin-4-yl)-3-methyl-2-oxo-2,3-dihydro-1H-benzo[d]imidazol-1-yl)piperidine-2,6-dione]
< 500 nM | Cn1c(=O)n(C2CCC(=O)NC2=O)c2ccc(C3CCN(CCN4CCC(C(=O)N5CCC(Nc6ncc(Cl)c(-c7cccc(-c8ccccc8)c7)n6)CC5)CC4)CC3)cc21 (centres unmarked) [Compound 45, 3-[5-[1-[2-[4-[4-[[5-chloro-4-(3-phenylphenyl)pyrimidin-2-yl]amino]piperidine-1-carbonyl]-1-piperidyl]ethyl]-4-piperidyl]-3-methyl-2-oxo-benzimidazol-1-yl]piperidine-2,6-dione]
< 500 nM | Cn1c(=O)n(C2CCC(=O)NC2=O)c2ccc(C3CCN(C(=O)CN4CCC(C(=O)N5CCC(Nc6ncc(Cl)c(-c7cccc(-c8ccccc8)c7)n6)CC5)CC4)CC3)cc21 (centres unmarked) [Compound 46, 3-(5-(1-(2-(4-(4-((4-([1,1′-biphenyl]-3-yl)-5-chloropyrimidin-2-yl)amino)piperidine-1-carbonyl)piperidin-1-yl)acetyl)piperidin-4-yl)-3-methyl-2-oxo-2,3-dihydro-1H-benzo[d]imidazol-1-yl)piperidine-2,6-dione]
< 500 nM | Cn1c(=O)n(C2CCC(=O)NC2=O)c2ccc(C3CCN(CC4CCN(CC(=O)N5CCC(Nc6ncc(Cl)c(-c7cccc(-c8ccccc8)c7)n6)CC5)CC4)CC3)cc21 (centres unmarked) [Compound 47, 3-(5-(1-((1-(2-(4-((4-([1,1′-biphenyl]-3-yl)-5-chloropyrimidin-2-yl)amino)piperidin-1-yl)-2-oxoethyl)piperidin-4-yl)methyl)piperidin-4-yl)-3-methyl-2-oxo-2,3-dihydro-1H-benzo[d]imidazol-1-yl)piperidine-2,6-dione]
< 500 nM | O=C1CCC(Nc2ccc(C3CCN(C4CCN(CCC(=O)N5CCC(Nc6ncc(Cl)c(-c7cccc(-c8ccccc8)c7)n6)CC5)CC4)CC3)cc2)C(=O)N1 (centres unmarked) [Compound 48, 3-((4-(1′-(3-(4-((4-([1,1′-biphenyl]-3-yl)-5-chloropyrimidin-2-yl)amino)piperidin-1-yl)-3-oxopropyl)-[1,4′-bipiperidin]-4-yl)phenyl)amino)piperidine-2,6-dione]
< 500 nM | O=C1CCC(N2Cc3cc(C4CCN(CC5CCN(CC(=O)N6CCC(Nc7ncc(Cl)c(-c8cccc(-c9ccccc9)c8)n7)CC6)CC5)CC4)ccc3C2=O)C(=O)N1 (centres unmarked) [Compound 50]
